Measured values taken from patent US20230398130A1, “METHODS AND COMPOSITIONS FOR DIFFERENTIATING STEM CELLS” (Massachusetts Institute of Technology, priority 2020, published 2023).

How the values were obtained:
ISC-enriched organoids [1] = assay: Primary screen, 384-well 2.5-D organoid differentiation (ENR+CD, 6 days): basal lysozyme secretion (LYZ.NS); format: cell-based, murine; details: primary screen; for Dose.FC.LYZ.NS: FC vs plate median; for Z.LYZ.NS: standard z score
Text: (§1) High-throughput screening.

ISC-enriched organoids [2] = assay: Primary screen, 384-well 2.5-D organoid differentiation (ENR+CD, 6 days): carbachol-induced lysozyme secretion (LYZ.S); format: cell-based, murine; details: primary screen, FC vs plate median
Text: as §1

ISC-enriched organoids [3] = assay: Primary screen, 384-well 2.5-D organoid differentiation (ENR+CD, 6 days, Target Selective Inhibitor Library, vs whole-plate median): ATP (CellTiter-Glo 3D, CTG); details: primary screen; for Dose.FC.CTG: FC vs plate median; for Z.CTG: standard z score

| Structure (SMILES) | Dose.FC.LYZ.NS (ISC-enriched organoids [1]; Dose 0.08 uM) [log 2 fold change] | Z.LYZ.NS (ISC-enriched organoids [1]; Dose 0.08 uM) | Dose.FC.LYZ.NS (ISC-enriched organoids [1]; Dose 0.40 uM) [log 2 fold change] | Z.LYZ.NS (ISC-enriched organoids [1]; Dose 0.40 uM) | Dose.FC.LYZ.NS (ISC-enriched organoids [1]; Dose 2.00 uM) [log 2 fold change] | Z.LYZ.NS (ISC-enriched organoids [1]; Dose 2.00 uM) | Dose.FC.LYZ.NS (ISC-enriched organoids [1]; Dose 10.00 uM) [log 2 fold change] | Z.LYZ.NS (ISC-enriched organoids [1]; Dose 10.00 uM) | Dose.FC.LYZ.S (ISC-enriched organoids [2]; Dose 0.08 uM) [log 2 fold change] | Dose.FC.LYZ.S (ISC-enriched organoids [2]; Dose 0.40 uM) [log 2 fold change] | Dose.FC.LYZ.S (ISC-enriched organoids [2]; Dose 2.00 uM) [log 2 fold change] | Dose.FC.LYZ.S (ISC-enriched organoids [2]; Dose 10.00 uM) [log 2 fold change] | Dose.FC.CTG (ISC-enriched organoids [3]; Dose 0.08 uM) [log 2 fold change] | Z.CTG (ISC-enriched organoids [3]; Dose 0.08 uM) | Dose.FC.CTG (ISC-enriched organoids [3]; Dose 0.40 uM) [log 2 fold change] | Z.CTG (ISC-enriched organoids [3]; Dose 0.40 uM) | Dose.FC.CTG (ISC-enriched organoids [3]; Dose 2.00 uM) [log 2 fold change] | Z.CTG (ISC-enriched organoids [3]; Dose 2.00 uM) | Dose.FC.CTG (ISC-enriched organoids [3]; Dose 10.00 uM) [log 2 fold change] | Z.CTG (ISC-enriched organoids [3]; Dose 10.00 uM) |
| --- | --- | --- | --- | --- | --- | --- | --- | --- | --- | --- | --- | --- | --- | --- | --- | --- | --- | --- | --- | --- |
| NC(=O)c1cccc(-c2cc(Nc3ccc(OC(F)(F)F)cc3)ncn2)c1 [GNF-2] | 0.159 | 1.386 | −0.024 | −0.206 | 0.012 | 0.102 | −0.033 | −0.286 | 0.121 | 0.001 | 0.046 | −0.015 | 0.157 | 0.376 | 0.090 | 0.214 | 0.074 | 0.176 | 0.100 | 0.240 |
| CC1=C(C(=O)Nc2cc3cn[nH]c3cc2F)C(c2ccc(C(F)(F)F)cc2)CC(=O)N1 (stereo not shown) [GSK429286A] | 0.137 | 1.197 | 0.128 | 1.117 | 0.140 | 1.222 | 0.059 | 0.517 | 0.247 | 0.283 | 0.245 | 0.099 | 0.527 | 1.260 | 0.545 | 1.302 | 0.488 | 1.166 | 0.370 | 0.883 |
| C[C@@H](Oc1cc(-n2cnc3ccc(CN4CCN(C)CC4)cc32)sc1C(N)=O)c1ccccc1C(F)(F)F [GSK461364] | 0.078 | 0.682 | −0.096 | −0.834 | −0.246 | −2.138 | −0.287 | −2.498 | 0.112 | −0.093 | −0.352 | −0.390 | 0.160 | 0.383 | −0.154 | −0.368 | −0.628 | −1.500 | −0.621 | −1.484 |
| CCn1c(-c2nonc2N)nc2c(C#CC(C)(C)O)ncc(OC[C@H]3CCCNC3)c21 [GSK690693] | 0.045 | 0.388 | 0.047 | 0.409 | 0.122 | 1.060 | −0.080 | −0.698 | 0.019 | 0.155 | 0.124 | −0.153 | 0.129 | 0.308 | 0.197 | 0.470 | −0.027 | −0.064 | −0.182 | −0.434 |
| CC(C)c1noc(N2CCC(COc3ccc(-c4ccc(S(C)(=O)=O)cc4)nc3)CC2)n1 [GSK1292263] | 0.078 | 0.681 | 0.050 | 0.434 | 0.028 | 0.240 | 0.020 | 0.173 | 0.111 | 0.101 | 0.060 | 0.027 | 0.161 | 0.384 | 0.192 | 0.458 | 0.224 | 0.535 | 0.196 | 0.468 |
| CCc1cc(Nc2nccc(-c3c(-c4ccc(OC)c(C(=O)Nc5c(F)cccc5F)c4)nc4ccccn34)n2)c(OC)cc1N1CCC(N2CCN(S(C)(=O)=O)CC2)CC1 [GSK1904529A] | 0.102 | 0.890 | 0.112 | 0.977 | −0.179 | −1.557 | −0.163 | −1.419 | 0.133 | −0.047 | −0.225 | −0.276 | 0.202 | 0.484 | −0.071 | −0.170 | −0.570 | −1.361 | −0.691 | −1.649 |
| Cc1cccc(CC(=O)N2CCc3c2ccc(-c2cn(C)c4ncnc(N)c24)c3F)n1 [GSK2656157] | −0.031 | −0.267 | −0.045 | −0.396 | −0.033 | −0.291 | −0.012 | −0.102 | −0.008 | 0.060 | −0.020 | 0.090 | 0.068 | 0.162 | 0.115 | 0.274 | 0.083 | 0.197 | 0.119 | 0.284 |
| CCOC(=O)CCNc1cc(N2CCc3ccccc3CC2)nc(-c2ccccn2)n1.Cl [GSK J4 HCl] | 0.058 | 0.508 | 0.050 | 0.433 | 0.018 | 0.153 | −0.001 | −0.006 | 0.086 | 0.109 | 0.041 | −0.002 | 0.124 | 0.297 | 0.099 | 0.237 | 0.002 | 0.006 | 0.233 | 0.558 |
